Reference: the NIST ThermoML archive (doi:10.1021/je800635g)

Conditions: Liquid, Falling or rolling sphere viscometry

Cc1ccc(C)cc1 [1,4-dimethylbenzene]
viscosity [mPa·s]
Conditions | 313.15 K | 333.15 K | 353.15 K | 373.15 K | 393.15 K | 413.15 K | 433.15 K | 453.15 K | 473.15 K
100 kPa | 0.499 | 0.409 | 0.34 | 0.292 | – | – | – | – | –
800 kPa | 0.5029 | 0.412 | 0.346 | 0.297 | 0.254 | 0.221 | 0.192 | 0.168 | –
1600 kPa | 0.51 | 0.414 | 0.35 | 0.3 | 0.258 | 0.223 | 0.197 | 0.17 | 0.159
2400 kPa | 0.516 | 0.417 | 0.356 | 0.303 | 0.262 | 0.226 | 0.201 | 0.172 | 0.163
3200 kPa | 0.521 | 0.419 | 0.361 | 0.305 | 0.266 | 0.228 | 0.206 | 0.175 | 0.167

CC(=O)O [acetic acid]
viscosity [mPa·s]
Conditions | 313.15 K | 333.15 K | 353.15 K | 373.15 K | 393.15 K | 413.15 K | 433.15 K | 453.15 K | 473.15 K
100 kPa | 0.903 | 0.713 | 0.574 | 0.471 | – | – | – | – | –
800 kPa | 0.91 | 0.72 | 0.582 | 0.478 | 0.394 | 0.333 | 0.281 | 0.244 | –
1600 kPa | 0.917 | 0.727 | 0.59 | 0.486 | 0.402 | 0.34 | 0.287 | 0.251 | 0.213
2400 kPa | 0.924 | 0.735 | 0.598 | 0.494 | 0.41 | 0.347 | 0.294 | 0.258 | 0.22
3200 kPa | 0.932 | 0.743 | 0.605 | 0.502 | 0.418 | 0.354 | 0.302 | 0.264 | 0.226

CCCCCCCCCC [decane]
Conditions | viscosity [mPa·s]
313.15 K, 100 kPa | 0.7051
323.15 K, 100 kPa | 0.6356
333.15 K, 100 kPa | 0.5646
333.15 K, 800 kPa | 0.5732
333.15 K, 1600 kPa | 0.5714
333.15 K, 2400 kPa | 0.5756
333.15 K, 3200 kPa | 0.5792
343.15 K, 100 kPa | 0.5069
353.15 K, 100 kPa | 0.4514
363.15 K, 100 kPa | 0.4136
373.15 K, 100 kPa | 0.3729
373.15 K, 800 kPa | 0.3773
373.15 K, 1600 kPa | 0.3818
373.15 K, 2400 kPa | 0.3851
373.15 K, 3200 kPa | 0.3906
393.15 K, 1600 kPa | 0.3216
413.15 K, 1600 kPa | 0.279
433.15 K, 1600 kPa | 0.2328
453.15 K, 1600 kPa | 0.2072
473.15 K, 1600 kPa | 0.174

Cc1ccccc1 [toluene]
Conditions | viscosity [mPa·s]
313.15 K, 100 kPa | 0.4651
323.15 K, 100 kPa | 0.4158
333.15 K, 100 kPa | 0.3758
333.15 K, 800 kPa | 0.3839
333.15 K, 1600 kPa | 0.3889
333.15 K, 2400 kPa | 0.3955
333.15 K, 3200 kPa | 0.4008
343.15 K, 100 kPa | 0.3428
353.15 K, 100 kPa | 0.3137
363.15 K, 100 kPa | 0.2901
373.15 K, 100 kPa | 0.268
373.15 K, 800 kPa | 0.2706
373.15 K, 1600 kPa | 0.2742
373.15 K, 2400 kPa | 0.278
373.15 K, 3200 kPa | 0.2822
393.15 K, 1600 kPa | 0.2397
413.15 K, 1600 kPa | 0.2058
433.15 K, 1600 kPa | 0.1769
453.15 K, 1600 kPa | 0.1517
473.15 K, 1600 kPa | 0.1353
